Assay results reported in US12384770B2, “Heterocyclic compound” (Takeda Pharmaceutical Company Limited, priority 2019, dated 2025).

Target: T1, HDAC6 enzyme (Homo sapiens, UniProt Q9UBN7)
T1 construct: HDAC6 enzyme prepared by transducing full length HDAC6 gene into Sf-9 insect cells; GST; purchased SignalChem; host or cells: Sf-9 insect cells
T1 sequence (Q9UBN7 1-1215): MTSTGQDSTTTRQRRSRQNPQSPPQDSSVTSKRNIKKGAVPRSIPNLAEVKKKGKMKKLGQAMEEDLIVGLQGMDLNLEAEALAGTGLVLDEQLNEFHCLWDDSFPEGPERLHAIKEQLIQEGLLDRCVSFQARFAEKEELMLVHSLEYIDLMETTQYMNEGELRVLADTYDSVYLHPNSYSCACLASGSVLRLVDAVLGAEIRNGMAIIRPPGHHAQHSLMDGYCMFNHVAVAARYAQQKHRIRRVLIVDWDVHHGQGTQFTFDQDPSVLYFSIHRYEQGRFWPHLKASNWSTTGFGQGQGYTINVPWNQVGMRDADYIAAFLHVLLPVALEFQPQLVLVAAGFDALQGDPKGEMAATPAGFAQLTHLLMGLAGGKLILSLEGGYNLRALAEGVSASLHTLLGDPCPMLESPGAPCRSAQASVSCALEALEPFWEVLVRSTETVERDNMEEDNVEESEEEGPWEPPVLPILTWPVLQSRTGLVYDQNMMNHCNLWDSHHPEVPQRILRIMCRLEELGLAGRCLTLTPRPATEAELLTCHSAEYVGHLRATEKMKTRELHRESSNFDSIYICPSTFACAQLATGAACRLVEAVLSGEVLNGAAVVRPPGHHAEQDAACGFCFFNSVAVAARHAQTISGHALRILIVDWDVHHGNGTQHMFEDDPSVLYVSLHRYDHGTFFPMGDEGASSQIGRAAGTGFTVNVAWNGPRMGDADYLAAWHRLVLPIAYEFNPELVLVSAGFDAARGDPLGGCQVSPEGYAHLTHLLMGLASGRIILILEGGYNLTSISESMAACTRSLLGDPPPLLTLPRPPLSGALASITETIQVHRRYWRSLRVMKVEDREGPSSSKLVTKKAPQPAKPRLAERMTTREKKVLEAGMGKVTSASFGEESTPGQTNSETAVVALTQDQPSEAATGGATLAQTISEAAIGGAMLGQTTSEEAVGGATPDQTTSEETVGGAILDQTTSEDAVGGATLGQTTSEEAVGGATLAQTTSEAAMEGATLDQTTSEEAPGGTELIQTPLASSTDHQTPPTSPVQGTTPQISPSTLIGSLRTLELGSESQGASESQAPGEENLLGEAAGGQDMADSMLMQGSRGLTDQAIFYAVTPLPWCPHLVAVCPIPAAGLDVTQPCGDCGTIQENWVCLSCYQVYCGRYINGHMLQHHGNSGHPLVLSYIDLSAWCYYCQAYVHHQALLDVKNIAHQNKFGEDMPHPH
Assay: HDAC6 enzyme inhibitory assay (HDAC-Glo I/II Assay kit)
Format: biochemical
Settings: wells without enzyme = 100% inhibition; for inhibition at 10 µM: read-out: HDAC6 inhibitory rate (%) (10 μM)
Procedure: Experimental Example 1 HDAC6 Enzyme Inhibitory Assay
HDAC6 enzyme prepared by transducing full length HDAC6 gene into Sf-9 insect cells and purifying by GST affinity column were purchased from SignalChem. Using this enzyme, HDAC6 enzyme inhibitory activity of the compound of the present invention were evaluated. Enzymes were used after preserved at −70° C. HDAC6 enzyme inhibitory activity of the compound of the present invention was measured using HDAC-Glo™ I/II Assay kit (Promega) according to the following experimental method. The test compound diluted with assay buffer (24 mM Tris-HCl (pH 7.5), 1 mM MgCl2, 0.35 mM KCl, 135 mM NaCl, 0.6 mM Glutathione, 0.01% Tween-20) was added to a 384-well plate by each 2 μL. Then, HDAC6 enzyme solution diluted with assay buffer was added thereto by each 4 μL, and the plate was incubated at room temperature for 60 min. After incubated, HDAC substrate-Developer solution prepared according to Promega protocol attached to the assay kit was added to the 384-well plate by each 2 μL, and the enzyme reaction was started. After reacting at room temperature for 20 min, luminescence level was measured using plate reader Envision (PerkinElmer). The inhibitory activity of each compound of Example was calculated as a relative activity value when luminescence level in wells without enzyme is considered as 100% inhibition.

Row | inhibition at 10 µM [%] | Structure (SMILES) | other results
1 | 100 | O=C1c2cc(-c3nnc(C(F)F)o3)ccc2CN1[C@H](C1CC1)[C@H](O)c1ccc(F)cc1 [Example 137, 2-[(1R,2R)-1-cyclopropyl-2-(4-fluorophenyl)-2-hydroxyethyl]-6-[5-(difluoromethyl)-1,3,4-oxadiazol-2-yl]-2,3-dihydro-1H-isoindol-1-one] | 
2 | 99 | O=C1c2cc(-c3nnc(C(F)F)o3)ccc2CN1[C@H](c1ccc(F)cc1)[C@@H](O)C1CC1 (racemic) [Example 19, 2-[(1RS,2SR)-2-cyclopropyl-1-(4-fluorophenyl)-2-hydroxyethyl]-6-[5-(difluoromethyl)-1,3,4-oxadiazol-2-yl]-2,3-dihydro-1H-isoindol-1-one] | 
3 | 99 | O=C1c2cc(-c3nnc(C(F)F)o3)ccc2CN1[C@H](c1ccc(F)cc1)[C@@H](O)c1ccc(F)nc1 (single isomer, unassigned) [Example 131, 6-[5-(difluoromethyl)-1,3,4-oxadiazol-2-yl]-2-[(1R*,2S*)-1-(4-fluorophenyl)-2-(6-fluoropyridin-3-yl)-2-hydroxyethyl]-2,3-dihydro-1H-isoindol-1-one] | 
4 | 100 | O=C1c2cc(-c3nnc(C(F)F)o3)ccc2CN1[C@H](c1ccc(F)cc1)[C@@H](O)c1ccccc1 (single isomer, unassigned) [Example 45, 6-[5-(difluoromethyl)-1,3,4-oxadiazol-2-yl]-2-[(1R*,2S*)-1-(4-fluorophenyl)-2-hydroxy-2-phenylethyl]-2,3-dihydro-1H-isoindol-1-one] | 
5 | 100 | O=C1c2cc(-c3nnc(C(F)F)o3)ccc2CN1[C@H](c1ccc(C(F)(F)F)nc1)[C@@H](O)c1ccccc1 (racemic) [Example 17, 6-[5-(difluoromethyl)-1,3,4-oxadiazol-2-yl]-2-{(1RS,2SR)-2-hydroxy-2-phenyl-1-[6-(trifluoromethyl)pyridin-3-yl]ethyl}-2,3-dihydro-1H-isoindol-1-one] | 
6 | 100 | O=C1c2cc(-c3nnc(C(F)F)o3)ccc2CN1[C@H](c1ccc(F)cn1)[C@@H](O)c1ccccn1 (single isomer, unassigned) [Example 59, 6-[5-(difluoromethyl)-1,3,4-oxadiazol-2-yl]-2-[(1R*,2R*)-1-(5-fluoropyridin-2-yl)-2-hydroxy-2-(pyridin-2-yl)ethyl]-2,3-dihydro-1H-isoindol-1-one] | 
7 | 99 | O=C1c2cc(-c3nnc(C(F)F)o3)ccc2CN1[C@H](c1cccnn1)[C@@H](O)c1ccc(Cl)cc1 (single isomer, unassigned) [Example 111, 2-[(1R*,2S*)-2-(4-chlorophenyl)-2-hydroxy-1-(pyridazin-3-yl)ethyl]-6-[5-(difluoromethyl)-1,3,4-oxadiazol-2-yl]-2,3-dihydro-1H-isoindol-1-one] | 
8 | 100 | O=C1c2cc(-c3nnc(C(F)F)o3)ccc2CN1[C@H](c1cccc(F)c1)[C@@H](O)c1ccc(F)cc1 (racemic) [Example 21, 6-[5-(difluoromethyl)-1,3,4-oxadiazol-2-yl]-2-[(1RS,2SR)-1-(3-fluorophenyl)-2-(4-fluorophenyl)-2-hydroxyethyl]-2,3-dihydro-1H-isoindol-1-one] | 

Continued, molecule first:

Row | Structure (SMILES) | inhibition at 10 µM [%] | other results
9 | O=C1c2cc(-c3nnc(C(F)F)o3)ccc2CN1[C@H](c1ccccn1)[C@@H](O)c1ccc(Cl)cn1 (single isomer, unassigned) [Example 112, 2-[(1R*,2R*)-2-(5-chloropyridin-2-yl)-2-hydroxy-1-(pyridin-2-yl)ethyl]-6-[5-(difluoromethyl)-1,3,4-oxadiazol-2-yl]-2,3-dihydro-1H-isoindol-1-one] | 99 | 
10 | O=C1c2cc(-c3nnc(C(F)F)o3)ccc2CN1[C@H](c1ccccn1)[C@@H](O)c1ccc(Cl)cn1 (single isomer, unassigned) [Example 113, 2-[(1R*,2R)-2-(5-chloropyridin-2-yl)-2-hydroxy-1-(pyridin-2-yl)ethyl]-6-[5-(difluoromethyl)-1,3,4-oxadiazol-2-yl]-2,3-dihydro-1H-isoindol-1-one] |  | HDAC6 inhibitory rate (%) (10 μM) (10 µM): 100%
11 | O=C1c2cc(-c3nnc(C(F)F)o3)ccc2CN1[C@H](c1cnccn1)[C@@H](O)c1ccc(Cl)cc1 (single isomer, unassigned) [Example 97, 2-[(1R*,2S*)-2-(4-chlorophenyl)-2-hydroxy-1-(pyrazin-2-yl)ethyl]-6-[5-(difluoromethyl)-1,3,4-oxadiazol-2-yl]-2,3-dihydro-1H-isoindol-1-one] |  | HDAC6 inhibitory rate (%) (10 μM) (10 µM): 99%
12 | O=C1c2cc(-c3nnc(C(F)F)o3)ccc2CN1[C@H](C1CC1)[C@@H](O)c1ccc(F)cn1 [Example 57, 2-[(1R,2R)-1-cyclopropyl-2-(5-fluoropyridin-2-yl)-2-hydroxyethyl]-6-[5-(difluoromethyl)-1,3,4-oxadiazol-2-yl]-2,3-dihydro-1H-isoindol-1-one] | 100 | 
13 | O=C1c2cc(-c3nnc(C(F)F)o3)ccc2CN1[C@H](C1CCOCC1)[C@@H](O)c1ccc(Cl)cc1 (single isomer, unassigned) [Example 83, 2-[(1R*,2S*)-2-(4-chlorophenyl)-2-hydroxy-1-(oxan-4-yl)ethyl]-6-[5-(difluoromethyl)-1,3,4-oxadiazol-2-yl]-2,3-dihydro-1H-isoindol-1-one] | 101 | 
14 | O=C1c2cc(-c3nnc(C(F)F)o3)ccc2CN1[C@H](c1ccccn1)[C@@H](O)c1cccc(C(F)(F)F)n1 (single isomer, unassigned) [Example 120, 6-[5-(difluoromethyl)-1,3,4-oxadiazol-2-yl]-2-{(1R*,2R*)-2-hydroxy-1-(pyridin-2-yl)-2-[6-(trifluoromethyl)pyridin-2-yl]ethyl}-2,3-dihydro-1H-isoindol-1-one] |  | HDAC6 inhibitory rate (%) (10 μM): 101%
15 | O=C1c2cc(-c3nnc(C(F)F)o3)ccc2CN1[C@H](c1ccccn1)[C@@H](O)c1cccc(C(F)(F)F)n1 (single isomer, unassigned) [Example 119, 6-[5-(difluoromethyl)-1,3,4-oxadiazol-2-yl]-2-{(1R*,2R*)-2-hydroxy-1-(pyridin-2-yl)-2-[6-(trifluoromethyl)pyridin-2-yl]ethyl}-2,3-dihydro-1H-isoindol-1-one] | 101 | 
16 | O=C1c2cc(-c3nnc(C(F)F)o3)ccc2CN1[C@H](C1CCOCC1)[C@@H](O)c1cc(F)cc(Cl)c1 (racemic) [Example 106, 2-[(1RS,2SR)-2-(3-chloro-5-fluorophenyl)-2-hydroxy-1-(oxan-4-yl)ethyl]-6-[5-(difluoromethyl)-1,3,4-oxadiazol-2-yl]-2,3-dihydro-1H-isoindol-1-one] | 100 | 
17 | O=C1c2cc(-c3nnc(C(F)F)o3)ccc2CN1[C@H](c1cccc(F)n1)[C@@H](O)c1cccc(F)n1 (single isomer, unassigned) [Example 118, 2-[(1R*,2R*)-1,2-bis(6-fluoropyridin-2-yl)-2-hydroxyethyl]-6-[5-(difluoromethyl)-1,3,4-oxadiazol-2-yl]-2,3-dihydro-1H-isoindol-1-one] |  | HDAC6 inhibitory rate (%) (10 μM) (10 µM): 102%
18 | O=C1c2cc(-c3nnc(C(F)F)o3)ccc2CN1[C@H](c1ccccn1)[C@@H](O)c1ccc(C(F)(F)F)cn1 (single isomer, unassigned) [Example 105, 6-[5-(difluoromethyl)-1,3,4-oxadiazol-2-yl]-2-{(1R*,2R*)-2-hydroxy-1-(pyridin-2-yl)-2-[5-(trifluoromethyl)pyridin-2-yl]ethyl}-2,3-dihydro-1H-isoindol-1-one] |  | HDAC6 inhibitory rate (%) (10 μM) (10 µM): 99%
